pIC50: −log10 of the molar value. Values joined by “and” are separate entries in the source; they are usually repeats but may differ in a detail not shown here. Identical values can stand only once.
Test system: K24384-001-R-PDC complex spheroid viability
Experiment: Anticancer human tumor K24384-001-R-PDC patient-derived pancreatic adenocarcinoma cell line growth inhibition
Conditions: for viability, T/C: stronger effect = lower value
Text: Multicellular complex tumor spheroid response to LSD1 Inhibitor Iadademstat in combination with a variety of drugs and investigational agents in selected tumor cell lines
The current study was undertaken to assess response to LSD1 inhibitors in combination with standard-of-care drugs and investigational agents in solid tumor complex spheroid models as well as in the K-562 leukemia. Complex spheroids include a stromal component modeled by human endothelial cells (HUVEC) and fibroblasts modeled by human mesenchymal stem cells (MSCs). The concentration ranges selected for each drug and investigational agent were based upon clinically achievable concentrations if the clinical Cmax of the agent was known.
Compounds. The drugs and investigational agents used in this study are listed on Table 1. All of the agents used, including staurosporine (NSC755774) and gemcitabine (NSC613327), were obtained from the Developmental Therapeutics Program, NCI. FDA-approved anticancer drugs are available from the NCI at http://dtp.nci.nih.gov/branches/dscb/oncology_drugset_explanation.html. Drugs and investigational agents were >95% pure by proton nuclear magnetic resonance (NMR) and liquid chromatography/mass spectrometry (LC/MS). Stock solutions were prepared at 400x in DMSO, stored at -70 degrees C, and diluted in fresh medium prior to their use. The final concentration of DMSO in cell culture wells never exceeded 0.25% (v/v). The FDA-approved anticancer drug set is available from the Developmental Therapeutics Program at https://dtp.cancer.gov/organization/dscb/obtaining/available_plates.htm. All drugs and investigational agents were tested over a range starting from a high concentration at or near the clinical Cmax and decreasing in half-log increments. If the clinical Cmax for an agent had not been determined, the highest concentration tested was 10 microM.
Cell Lines. The patient-derived cancer cell (PDC) lines: 292921-168-R-J2-PDC, K24384-001-R-PDC, and 521955-158-R2-J5-PDC pancreatic carcinomas, 556581-035-R-J1 ovarian carcinoma, 324938-238-R-J1-PDC, 855422-203-R-J1-PDC and 883617-216-R-J1-PDC urothelial bladder carcinomas, 743489-274-T-PDC renal cell carcinoma, 138582-R-J1 Merkel cell tumor, K60290-347-R-J1 and K57222-313-R-J1-PDC glioblastomas, 653999-131-R-J2-PDC, LG0703-F948-PDC, and 349418-098-R-PDC non-small cell lung carcinomas, 885512-296-R-J2-PDC, 171881-019-R-J1-PDC breast carcinomas and 186277-243-T-J2-PDC and 233499-124-R-J2-PDC colon carcinomas were obtained from the NCI Patient-Derived Models Repository (PDMR, https://pdmr.cancer.gov). The established cell lines NCI/ADR-RES (RRID:CVCL_14520 and OVCAR-5 (RRID:CVCL_1628) ovarian carcinomas, 786-O (RRID:CVCL_1051) and A498 (RRID:CVCL_A498) renal cell carcinoma, NCI-H211 (ATCC, cat. CRL-5824; RRID:CVCL_1529), NCI-H196 (ATCC, cat. CRL-5823, RRID:CVCL_1509), SW 1271 (ATCC, cat. CRL-2177, RRID:CVCL_1716) and NCI-H1876 (ATCC, cat. CRL-5902, RRID:CVCL_1503) small cell lung carcinomas, MDA-MB-231 (RRID:CVCL_0062) and MDA-MB-468 (RRID:CVCL_0419)breast carcinomas (10-12). Pooled donor human umbilical vein endothelial cells (HUVEC, Lonza, cat. CC-2519) and human mesenchymal stem cells (hMSC, Lonza, cat. PT-2501) were purchased from Lonza (Walkersville, MD).
Cell Culture. All cells were maintained in an incubator at 37 degrees C and 5% CO2 with 95% humidity. The PDC lines were cultured according to standard operating procedures established by the NCI PDMR (https://pdmr.cancer.gov). Briefly all PDCs were thawed and cultured in Matrigel-coated flasks prepared with a working solution of 1X Ham's F-12 nutrient mix, without supplementation (Invitrogen, Waltham, MA, cat. 11765054), 100 U/mL penicillin-streptomycin (Invitrogen, cat. 15140122), and 2.5% Matrigel (Corning Inc., Corning, NY, cat. 354248) for the first three passages. […]

[1] = curve of first compound, second compound 0.1 µM
[2] = curve of first compound, second compound 0.316 µM
[3] = curve of first compound, second compound 1 µM
[4] = curve of first compound, second compound 3.16 µM
[5] = curve of first compound, second compound 10 µM
[6] = second compound 0.1 µM, first compound 0.0316 µM
[7] = second compound 0.1 µM, first compound 0.1 µM
[8] = second compound 0.316 µM, first compound 0.0316 µM
[9] = second compound 0.316 µM, first compound 0.1 µM
[10] = second compound 1 µM, first compound 0.0316 µM
[11] = second compound 1 µM, first compound 0.1 µM
[12] = second compound 3.16 µM, first compound 0.0316 µM
[13] = second compound 3.16 µM, first compound 0.1 µM
[14] = second compound 10 µM, first compound 0.0316 µM
[15] = second compound 10 µM, first compound 0.1 µM
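Further: spheroids exposed to agents for seven days before luminescence viability reading.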
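Wherever viability, T/C is given: 100% = DMSO vehicle control viability.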

With `CC(C)CC(NC(=O)CNC(=O)c1cc(Cl)ccc1Cl)B1OC(=O)CC(CC(=O)O)(C(=O)O)O1` (configuration not stated) + NC1CC1c1ccc(-c2cccc(O)c2)cc1 the pIC50 [1] was 8.05, the pIC50 [2] was 8.04 and the pIC50 [3] was 8.07. The pIC50 [4] was 8.06, the pIC50 [5] was 8.15 and the viability, T/C (second compound 0.1 µM, first compound 0.000316 µM) was 121%. For the same compound, the viability, T/C (second compound 0.1 µM, first compound 0.001 µM) was 123%, the viability, T/C (second compound 0.1 µM, first compound 0.00316 µM) was 97.3% and the viability, T/C (second compound 0.1 µM, first compound 0.01 µM) was 46.6%. It also gave a viability, T/C [6] of 4.82%, a viability, T/C [7] of 0.93% and a viability, T/C (second compound 0.316 µM, first compound 0.000316 µM) of 114%. For the same compound, the viability, T/C (second compound 0.316 µM, first compound 0.001 µM) was 113%, the viability, T/C (second compound 0.316 µM, first compound 0.00316 µM) was 95.4% and the viability, T/C (second compound 0.316 µM, first compound 0.01 µM) was 47.8%. It also gave a viability, T/C [8] of 4.68%, a viability, T/C [9] of 0.79% and a viability, T/C (second compound 1 µM, first compound 0.000316 µM) of 112%. The viability, T/C (second compound 1 µM, first compound 0.001 µM) was 129%, the viability, T/C (second compound 1 µM, first compound 0.00316 µM) was 117% and the viability, T/C (second compound 1 µM, first compound 0.01 µM) was 38.8%. For the same compound, the viability, T/C [10] was 4.54%, the viability, T/C [11] was 0.98% and the viability, T/C (second compound 3.16 µM, first compound 0.000316 µM) was 117%. The viability, T/C (second compound 3.16 µM, first compound 0.001 µM) was 109%, the viability, T/C (second compound 3.16 µM, first compound 0.00316 µM) was 101% and the viability, T/C (second compound 3.16 µM, first compound 0.01 µM) was 42.9%. For the same compound, the viability, T/C [12] was 4.31%, the viability, T/C [13] was 0.85% and the viability, T/C (second compound 10 µM, first compound 0.000316 µM) was 111%. For the same compound, the viability, T/C (second compound 10 µM, first compound 0.001 µM) was 136%, the viability, T/C (second compound 10 µM, first compound 0.00316 µM) was 103% and the viability, T/C (second compound 10 µM, first compound 0.01 µM) was 28.1%. For the same compound, the viability, T/C [14] was 2.96% and the viability, T/C [15] was 0.48%.

For `Nc1ccccc1NC(=O)c1ccc(CNC(=O)OCc2cccnc2)cc1`, the viability, T/C (compound 0.00949 µM) was 95.6% and 102%, the viability, T/C (compound 0.03 µM) was 102% and 108% and the viability, T/C (compound 0.0949 µM) was 89.1% and 128%. The viability, T/C (compound 0.3 µM) was 69.4% and 70.9%, the viability, T/C (compound 0.949 µM) was 11.8% and 9.62% and the viability, T/C (compound 3 µM) was 0.21% and 0.26%. The pIC50 (curve of compound) was 6.36.

For `CC(C)c1c(-c2ccccc2)nc2c(C#N)c[nH]n2c1=O` + NC1CCC(NC2CC2c2ccccc2)CC1, the pIC50 [1] was under 5.00, the pIC50 [2] was under 5.00 and the pIC50 [3] was under 5.00. It also gave a pIC50 [4] of under 5.00, a pIC50 [5] of under 5.00 and a viability, T/C [6] of 78.2%. For the same compound, the viability, T/C [7] was 80.2%, the viability, T/C (second compound 0.1 µM, first compound 0.316 µM) was 77.7% and the viability, T/C (second compound 0.1 µM, first compound 1 µM) was 77.3%. It also gave a viability, T/C (second compound 0.1 µM, first compound 3.16 µM) of 81.4%, a viability, T/C (second compound 0.1 µM, first compound 10 µM) of 81% and a viability, T/C [8] of 78.3%. It also gave a viability, T/C [9] of 70.4%, a viability, T/C (second compound 0.316 µM, first compound 0.316 µM) of 85.8% and a viability, T/C (second compound 0.316 µM, first compound 1 µM) of 72.2%. It also gave a viability, T/C (second compound 0.316 µM, first compound 3.16 µM) of 77.1%, a viability, T/C (second compound 0.316 µM, first compound 10 µM) of 87.5% and a viability, T/C [10] of 72.5%. The viability, T/C [11] was 67.4%, the viability, T/C (second compound 1 µM, first compound 0.316 µM) was 96.3% and the viability, T/C (second compound 1 µM, first compound 1 µM) was 75.3%. For the same compound, the viability, T/C (second compound 1 µM, first compound 3.16 µM) was 75%, the viability, T/C (second compound 1 µM, first compound 10 µM) was 97.4% and the viability, T/C [12] was 73%. For the same compound, the viability, T/C [13] was 81.5%, the viability, T/C (second compound 3.16 µM, first compound 0.316 µM) was 82.5% and the viability, T/C (second compound 3.16 µM, first compound 1 µM) was 71%. The viability, T/C (second compound 3.16 µM, first compound 3.16 µM) was 75%, the viability, T/C (second compound 3.16 µM, first compound 10 µM) was 77.9% and the viability, T/C [14] was 77.2%. For the same compound, the viability, T/C [15] was 74.7%, the viability, T/C (second compound 10 µM, first compound 0.316 µM) was 80.2% and the viability, T/C (second compound 10 µM, first compound 1 µM) was 76.6%. For the same compound, the viability, T/C (second compound 10 µM, first compound 3.16 µM) was 80.1% and the viability, T/C (second compound 10 µM, first compound 10 µM) was 83.6%.

— PubChem BioAssay AID1918949 (Molecular Pharmacology Branch, DTP, NCI, 2023)
